Calls of active or inactive are those of the source. No cut-off for these calls is given here.
Columns and labels:
Gamma-secretase [1] = assay: Modulation of gamma secretase in human H4 cells assessed as inhibition of amyloid beta (1 to 42) production; format: cell-based
Cytochrome P450 3A4 = Cytochrome P450 3A4 (Homo sapiens, UniProt P08684); assay: Inhibition of CYP3A4 (unknown origin) by fluorescence assay
Mus musculus [2] = species on record: Mus musculus; conditions: Brain, 30 mg/kg
Gamma-secretase [3] = assay: Modulation of gamma secretase in human H4 cells transfected with APP751 SWE clone 8.20 mutant assessed as inhibition of amyloid beta (1 to 42) production after 19 hrs; format: cell-based
[4] = target: Voltage-gated inwardly rectifying potassium channel KCNH2 (Homo sapiens, UniProt Q12809); assay: Inhibition of human ERG by thallium flux assay
Liver microsome = assay: Drug metabolism in human liver microsomes; format: ADME
[5] = Plasma protein binding in human; format: ADME, cell-free; conditions: read-out: PPB
[6] = Plasma protein binding in mouse; format: ADME, cell-free; conditions: read-out: PPB
[7] = Plasma concentration in 3x transgenic Alzheimer's disease mouse model at 1 mg/kg, po measured after 3 hrs; format: ADME, organism-based; conditions: 3x transgenic Alzheimer's disease model
[8] = Plasma concentration in 3x transgenic Alzheimer's disease mouse model at 3 mg/kg, po measured after 3 hrs; format: ADME, organism-based; conditions: 3x transgenic Alzheimer's disease model
[9] = Plasma concentration in 3x transgenic Alzheimer's disease mouse model at 10 mg/kg, po measured after 3 hrs; format: ADME, organism-based; conditions: 3x transgenic Alzheimer's disease model
[10] = Plasma concentration in 3x transgenic Alzheimer's disease mouse model at 30 mg/kg, po measured after 3 hrs; format: ADME, organism-based; conditions: 3x transgenic Alzheimer's disease model
[11] = Plasma concentration in 3x transgenic Alzheimer's disease mouse model at 100 mg/kg, po measured after 3 hrs; format: ADME, organism-based; conditions: 3x transgenic Alzheimer's disease model
[12] = Total drug level in 3x transgenic Alzheimer's disease mouse brain at 30 mg/kg, po measured after 3 hrs; format: ADME, organism-based; conditions: 3x transgenic Alzheimer's disease model, read-out: Drug uptake
Mus musculus [13] = assay: Effect on total amyloid beta production in 3x transgenic mouse model of Alzheimer's disease at 1 to 100 mg/kg, po measured after 3 hrs by ELISA; format: ADME, organism-based; conditions: in vivo
[14] = Ratio of total drug level in brain to plasma in 3x transgenic mouse model of Alzheimer's disease at 30 mg/kg, po measured after 3 hrs; format: ADME, organism-based; conditions: 3x transgenic Alzheimer's disease model, read-out: BPR
Mus musculus [15] = assay: Anti-alzheimer activity in 3x transgenic mouse model of Alzheimer's disease assessed as amyloid beta (1 to 42) level in brain at 1 mg/kg, po measured after 3 hrs by ELISA relative to control; format: functional
Mus musculus [16] = assay: Anti-alzheimer activity in 3x transgenic mouse model of Alzheimer's disease assessed as amyloid beta (1 to 42) level in brain at 3 mg/kg, po measured after 3 hrs by ELISA relative to control; format: functional
Mus musculus [17] = assay: Anti-alzheimer activity in 3x transgenic mouse model of Alzheimer's disease assessed as amyloid beta (1 to 42) level in brain at 10 mg/kg, po measured after 3 hrs by ELISA relative to control; format: functional
Mus musculus [18] = assay: Anti-alzheimer activity in 3x transgenic mouse model of Alzheimer's disease assessed as amyloid beta (1 to 42) level in brain at 30 mg/kg, po measured after 3 hrs by ELISA relative to control; format: functional
Mus musculus [19] = assay: Anti-alzheimer activity in 3x transgenic mouse model of Alzheimer's disease assessed as amyloid beta (1 to 42) level in brain at 100 mg/kg, po measured after 3 hrs by ELISA relative to control; format: functional

Chain of Cytochrome P450 3A4 (P08684 whole entry): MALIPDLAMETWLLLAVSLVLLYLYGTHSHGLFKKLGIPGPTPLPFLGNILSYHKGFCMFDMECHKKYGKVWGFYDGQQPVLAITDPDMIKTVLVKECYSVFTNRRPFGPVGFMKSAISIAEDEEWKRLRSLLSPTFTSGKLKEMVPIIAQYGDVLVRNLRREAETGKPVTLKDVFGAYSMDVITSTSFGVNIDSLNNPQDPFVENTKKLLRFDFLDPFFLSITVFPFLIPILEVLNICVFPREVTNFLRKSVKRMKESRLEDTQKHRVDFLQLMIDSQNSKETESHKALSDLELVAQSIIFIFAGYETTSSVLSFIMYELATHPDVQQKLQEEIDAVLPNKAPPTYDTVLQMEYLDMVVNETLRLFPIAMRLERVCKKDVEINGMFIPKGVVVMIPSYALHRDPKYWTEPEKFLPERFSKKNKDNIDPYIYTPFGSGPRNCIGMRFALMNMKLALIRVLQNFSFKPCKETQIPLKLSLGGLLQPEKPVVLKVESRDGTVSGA
Chain of Voltage-gated inwardly rectifying potassium channel KCNH2 (Q12809 whole entry): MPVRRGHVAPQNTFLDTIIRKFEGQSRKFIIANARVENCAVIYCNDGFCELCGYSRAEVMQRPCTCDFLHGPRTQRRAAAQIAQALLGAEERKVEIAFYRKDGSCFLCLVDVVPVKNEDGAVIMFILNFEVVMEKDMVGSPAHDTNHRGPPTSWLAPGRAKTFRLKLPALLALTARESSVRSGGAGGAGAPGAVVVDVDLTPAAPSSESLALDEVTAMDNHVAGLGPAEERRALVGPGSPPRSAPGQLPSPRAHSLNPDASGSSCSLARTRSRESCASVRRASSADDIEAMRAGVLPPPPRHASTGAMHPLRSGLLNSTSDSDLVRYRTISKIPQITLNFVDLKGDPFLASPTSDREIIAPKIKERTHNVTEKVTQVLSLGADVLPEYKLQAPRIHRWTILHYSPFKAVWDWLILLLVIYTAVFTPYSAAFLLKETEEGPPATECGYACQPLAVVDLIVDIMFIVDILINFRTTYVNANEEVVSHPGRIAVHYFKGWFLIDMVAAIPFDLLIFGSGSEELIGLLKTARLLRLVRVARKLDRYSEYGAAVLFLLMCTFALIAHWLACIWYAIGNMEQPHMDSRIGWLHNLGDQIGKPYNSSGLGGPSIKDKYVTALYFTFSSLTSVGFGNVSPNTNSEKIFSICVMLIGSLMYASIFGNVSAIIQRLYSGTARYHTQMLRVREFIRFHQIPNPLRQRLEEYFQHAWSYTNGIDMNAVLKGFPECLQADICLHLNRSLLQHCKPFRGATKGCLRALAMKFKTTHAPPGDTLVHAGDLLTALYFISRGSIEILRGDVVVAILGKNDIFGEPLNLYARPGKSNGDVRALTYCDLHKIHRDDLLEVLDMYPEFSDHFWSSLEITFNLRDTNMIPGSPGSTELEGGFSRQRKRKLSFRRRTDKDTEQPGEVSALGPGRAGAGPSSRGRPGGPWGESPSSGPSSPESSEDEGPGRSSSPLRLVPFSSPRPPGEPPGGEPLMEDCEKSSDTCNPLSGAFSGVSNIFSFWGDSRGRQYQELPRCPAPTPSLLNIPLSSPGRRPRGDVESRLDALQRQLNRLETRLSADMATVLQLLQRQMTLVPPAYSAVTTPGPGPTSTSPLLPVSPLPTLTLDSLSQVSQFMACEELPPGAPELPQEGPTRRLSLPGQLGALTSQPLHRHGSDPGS

Row | SMILES | IC50 (Gamma-secretase [1]; read-out: IC50) [nM] | IC50 (Cytochrome P450 3A4) [nM] | other results
1 | COc1ccc(Cc2nc3c(o2)CCc2cc(-c4ccnc(C)c4)ccc2C3=O)cc1 | 300 | 300 | 
2 | Cc1cn(-c2ccc3c(c2)NC(=O)c2ccc(Cc4ccccc4)nc2N3)cn1 | 50 | 150 | inhibition (Mus musculus [2]): inactive
3 | CC(c1ccccc1)c1ccc2c(n1)Nc1ccc(-n3cnc(Cl)c3)cc1NC2=O (racemic) | 200 | > 13000 | 
4 | COc1ccc(Cc2nc3c(n2C)CCc2cc(-n4cnc(C)c4)ccc2C3=O)cc1 | 1100 |  | 
5 | Cc1ncn(-c2ccc3c(c2)CCc2cn(Cc4ccccc4)nc2N3)n1 | 180 | 300 | 
6 | Cc1cn(-c2ccc3c(c2)CCc2ccc(Cc4ccc(F)cc4)nc2C3=O)cn1 | 1000 | 300 | 
7 | Cc1ncn(-c2ccc3c(c2)NC(=O)c2ccc(Cc4ccccc4)nc2N3)n1 | 460 | 2000 | 
8 | Cc1cn(-c2cc3c(cc2F)Nc2nc(Cc4ccccc4)ccc2C(=O)N3)cn1 | 820 | 30 | 
9 | Clc1cn(-c2ccc3c(c2)CCc2sc(Cc4ccccc4)nc2N3)cn1 | 140 |  | 
10 | COc1ccc(Cc2nc3c(n2C)CCc2cc(-c4ccnc(C)c4)ccc2C3=O)cc1 | 380 | 300 | 
11 | Clc1cn(-c2ccc3c(c2)CCc2cnn(Cc4ccccc4)c2N3)cn1 |  |  | IC50 (Gamma-secretase [1]): Not Active
12 | Cc1ncn(-c2ccc3c(c2)CCc2cnn(Cc4ccccc4)c2N3)n1 |  |  | IC50 (Gamma-secretase [1]): Not Active
13 | CNc1nc(Cc2ccccc2)nc(Nc2ccc(-n3cnc(C)c3)c(OC)c2)n1 |  |  | IC50 (Gamma-secretase [3]): 29 nM
14 | CNc1nc(Nc2ccc(-n3cncn3)c(OC)c2)nc(-c2ccccc2)n1 |  |  | IC50 (Gamma-secretase [3]): 180 nM
15 | Cc1cc(-c2ccc3c(c2)CCc2sc(Cc4ccc(F)cc4)nc2N3)ccn1 | 80 |  | 
16 | Cc1cc(-c2ccc3c(c2)CCc2sc(Cc4ccccc4)nc2N3)ccn1 | 50 |  | 
17 | O=C1Nc2cc(-n3cnc(Cl)c3)ccc2Nc2nc(Cc3ccccc3)ccc21 | 190 | > 13000 | 
18 | Cc1cc(-c2ccc3c(c2)CCc2sc(Cc4ccc(F)c(F)c4)nc2N3)ccn1 | 120 |  | 
19 | Clc1cn(-c2ccc3c(c2)CCc2cn(Cc4ccccc4)nc2N3)cn1 | 40 | 300 | 
20 | Cc1cncn1-c1ccc2c(c1)CCc1sc(Cc3ccc(F)cc3)nc1N2 | 1800 |  | 
21 | Cc1cn(-c2ccc3c(c2)NC(=O)c2ccc(C(C)c4ccccc4)nc2N3)cn1 (racemic) | 100 | 200 | 
22 | Cc1ncn(-c2ccc3c(c2)CCc2sc(Cc4ccccc4)nc2N3)n1 | 140 |  | 
23 | Cc1cn(-c2ccc3c(c2)CCc2sc(Cc4ccc(F)cc4)nc2N3)cn1 | 20 |  | 
24 | Cc1cn(-c2ccc3c(c2)CCc2sc(Cc4ccccc4)nc2N3)cn1 | 35 | 700 | inhibition (INH) [4]: Not Active; Drug metabolism (Liver microsome): 0.035 nmol/min/mg; fraction unbound [5]: < 0.002; fraction unbound [6]: < 0.002; concentration at 3 h [7]: 210 nM; concentration at 3 h [8]: 480 nM; concentration at 3 h [9]: 3.8 µM; concentration at 3 h [10]: 8 µM; concentration at 3 h [11]: 25 µM; concentration at 3 h [12]: 8.9 µM; Activity (Mus musculus [13]): Non-toxic; Kp at 3 h [14]: 1.1; Activity (Mus musculus [15]): 110%; Activity (Mus musculus [16]): 100%; Activity (Mus musculus [17]): 70%; Activity (Mus musculus [18]): 60%; Activity (Mus musculus [19]): 50%
25 | N#Cc1ccc2c(c1)CCc1sc(Cc3ccccc3)nc1N2 | 1200 |  | 

Reference: ChEMBL document CHEMBL3769328, “Design and optimization of tricyclic gamma-secretase modulators” (Bioorg Med Chem Lett, 2016)
